Assay results as given in patent publication US11890287B2, “Therapeutic compounds and compositions for treating social disorders and substance use disorders” (Kinoxis Therapeutics Pty Ltd, priority 2015, dated 2024).

How the values were obtained:
[1] = Pharmacokinetics after IP and PO administration; format: in vivo, Hooded Wistar rats; details: for AUC(0-inf) / AUC(0-t) / Cmax / Tmax: Hooded Wistar, rat, plasma
Protocol: When given via an intraperitoneal injection (IP), SOC-1 plasma levels show a rapid elevation. This swiftly declines over the first hour before settling into a less hasty decrease in concentration over the proceeding hours. […] The initial increase in plasma levels is less pronounced when SOC-1 is given orally but the decline is far less rapid, with plasma concentration becoming equivalent to IP between 1 and 4 hours. In many ways this is a more favourable profile as, unlike the IP dosing, oral dosing results in levels of SOC-1 that are still high but that are also very stable over many hours, with a half-life of over four hours.

Wistar rats = assay: Biotelemetry of body temperature and heart rate; format: in vivo, rat
Protocol: FIG. 7—The monitored body temperatures of Wistar rats administered vehicle, SOC-1 (5 mg/kg), or SOC-1 and the V1A receptor antagonist SR49059 (10 mg/kg).
FIG. 8—The monitored heart rates for Wistar rats administered vehicle, SOC-1 (5 mg/kg), or SOC-1 and the V1A receptor antagonist SR49059 (10 mg/kg).
However, the rats were not ataxic or comatose, they were simply in a relaxed quiescent state. […] Effects on body temperature and other behaviours are not blocked by pre-treatment with the vasopressin V1A receptor antagonist SR49059 (10 mg/kg). […] The data in these two studies was gathered with DataSciences International biotelemetry system.

Q: With `Cl.Cn1ncc2c1Nc1ccccc1NC2` [SOC-1] as the molecule, how does the AUC(0-inf) ([1]; ip, 5 mg/kg) read?
A: Its AUC(0-inf) is 5910 ng·h/mL.

Q: And the AUC(0-t) ([1]; ip, 5 mg/kg)?
A: Its AUC(0-t) is 5520 ng·h/mL.

Q: What about the Cmax ([1]; ip, 5 mg/kg) of the same molecule?
A: The Cmax was 3840 ng/mL.

Q: What about the Tmax ([1]; ip, 5 mg/kg) of the same molecule?
A: Its Tmax is 3.96 min.

Q: And the AUC(0-inf) ([1]; po, 5 mg/kg)?
A: Its AUC(0-inf) is 8490 ng·h/mL.

Q: And the AUC(0-t) ([1]; po, 5 mg/kg)?
A: The AUC(0-t) was 4060 ng·h/mL.

Q: And the Cmax ([1]; po, 5 mg/kg)?
A: Its Cmax is 1320 ng/mL.

Q: And the Tmax ([1]; po, 5 mg/kg)?
A: The Tmax was 26.1 min.

Q: What about the ka ([1]; IP, 5 mg/kg) of the same molecule?
A: Its ka is 71.727 h⁻¹.

Q: And the ke ([1]; IP, 5 mg/kg)?
A: Its ke is 0.679 h⁻¹.

Q: What about the t1/2ka ([1]; IP, 5 mg/kg) of the same molecule?
A: The t1/2ka was 0.5798 min.

Q: And the t1/2ke ([1]; IP, 5 mg/kg)?
A: The t1/2ke was 1.021 h.

Q: What about the ka ([1]; PO, 5 mg/kg) of the same molecule?
A: Its ka is 9.45 h⁻¹.

Q: What about the t1/2ka ([1]; PO, 5 mg/kg) of the same molecule?
A: The t1/2ka was 4.38 min.

Q: And the t1/2ke ([1]; PO, 5 mg/kg)?
A: The t1/2ke was 4.147 h.

Q: What about the half-life ([1]; oral dosing) of the same molecule?
A: Its half-life is “over four”.

Q: What about the oral bioavailability ([1]; relative to the intraperitoneal route) of the same molecule?
A: The oral bioavailability was “excellent oral bioavailability”.

Q: What about the body temperature (Wistar rats; 5 mg/kg) of the same molecule?
A: Its body temperature is “modest hypothermia”.

Q: What about the heart rate (Wistar rats; 5 mg/kg) of the same molecule?
A: Its heart rate is “no effect”.

Q: What about the “hypothermia at higher ambient temperatures” value (Wistar rats; 30° C.) of the same molecule?
A: The value was “abolished”.
